According to ChEMBL document CHEMBL3826958, “Zinc-mediated binding of a low-molecular-weight stabilizer of the host anti-viral factor apolipoprotein B mRNA-editing enzyme, catalytic polypeptide-like 3G” (Bioorg Med Chem, 2016):
Active and inactive are the calls of the source. The rule behind the calls is not given here.

What was measured:
[1] = target: DNA dC->dU-editing enzyme APOBEC-3G (Homo sapiens) (UniProt Q9HC16); test: Binding affinity to FLAG-tagged human A3G expressed in human 293T cells at 13 uM incubated for 16 hrs by streptavidin agarose based immunoblot analysis; format: cell-based
[2] = target: DNA dC->dU-editing enzyme APOBEC-3G (Homo sapiens) (UniProt Q9HC16); test: Binding affinity to FLAG-tagged human A3G expressed in human 293T cells at 13 uM incubated for 16 hrs in presence of EDTA by streptavidin agarose based immunoblot analysis; format: cell-based

Sequence of DNA dC->dU-editing enzyme APOBEC-3G (Homo sapiens) (Q9HC16 whole entry): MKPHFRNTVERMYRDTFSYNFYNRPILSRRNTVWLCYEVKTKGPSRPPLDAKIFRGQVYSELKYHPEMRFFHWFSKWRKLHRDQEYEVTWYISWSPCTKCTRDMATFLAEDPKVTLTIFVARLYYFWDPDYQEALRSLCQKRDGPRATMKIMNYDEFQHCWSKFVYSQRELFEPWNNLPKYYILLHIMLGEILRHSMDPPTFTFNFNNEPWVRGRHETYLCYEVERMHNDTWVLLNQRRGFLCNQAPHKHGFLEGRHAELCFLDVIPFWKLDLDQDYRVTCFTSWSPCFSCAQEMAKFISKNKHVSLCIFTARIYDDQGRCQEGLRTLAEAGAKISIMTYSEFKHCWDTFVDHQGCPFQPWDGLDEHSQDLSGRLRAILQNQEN

Row | Activity [1] | Activity [2] | SMILES
1 | Active | inactive | O=C(CCCC[C@@H]1SC[C@@H]2NC(=O)N[C@@H]21)NCCCCCCOC(=O)Nc1cc(CNCCS)nc(CNCCS)c1
2 | inactive |  | COC(=O)CCCC[C@@H]1SC[C@@H]2NC(=O)N[C@@H]21
